According to patent US20220324835A1 (Nurix Therapeutics, Inc., priority 2018, published 2022):

Experiments:
Format in all cases: cell-based
[1] = tested on: primary human total T-cells; test: T-cell activation assessed by CD69 expression
Outline: (§1)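 Primary human T-cells (>95% CD3+, negative selection from PBMC) were pre-incubated with inhibitor (e.g. 10, 1.11, 0.123 μM; DMSO <0.1%) for 1 h at 37 °C. They were then stimulated 48 h with plate-bound OKT3 (coated at 10 μg/mL), alone or with 5 μg/mL soluble anti-CD28. Results are fold change over uninhibited, identically stimulated cells.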

[2] = tested on: primary human total T-cells; test: T-cell activation assessed by cell proliferation (Cell Trace Violet)
Outline: as §1

[3] = tested on: primary human total T-cells; test: T-cell activation assessed by cytokine secretion (GM-CSF, IFNγ, TNFα)
Outline: as §1

[4] = CD3/CD28 stimulation, CD4 T-cells, read-out: % CD69+ (CD4)
[5] = CD3/CD28 stimulation, CD8 T-cells, read-out: % CD69+ (CD8)
[6] = CD3 alone stimulation, CD4 T-cells, read-out: % CD69+ (CD4)
[7] = CD3 alone stimulation, CD8 T-cells, read-out: % CD69+ (CD8)
[8] = CD3/CD28 stimulation, CD4 T-cells, read-out: % CP (cell proliferation) (CD4)
[9] = CD3/CD28 stimulation, CD8 T-cells, read-out: % CP (cell proliferation) (CD8)
[10] = CD3 alone stimulation, CD8 T-cells, read-out: % CP (cell proliferation) (CD8)
[11] = CD3/CD28 stimulation, read-out: GM-CSF secretion
[12] = CD3/CD28 stimulation, read-out: IFNγ secretion
[13] = CD3/CD28 stimulation, read-out: TNFα secretion
[14] = CD3 alone stimulation, read-out: GM-CSF secretion
[15] = CD3 alone stimulation, read-out: IFNγ secretion
[16] = CD3 alone stimulation, read-out: TNFα secretion

| Structure (SMILES) | fold induction at 1.11 µM [1, 4] | fold induction at 10 µM [1, 4] | fold induction at 1.11 µM [1, 5] | fold induction at 10 µM [1, 5] | fold induction at 1.11 µM [1, 6] | fold induction at 10 µM [1, 6] | fold induction at 1.11 µM [1, 7] | fold induction at 10 µM [1, 7] | fold induction at 1.11 µM [2, 8] | fold induction at 10 µM [2, 8] | fold induction at 1.11 µM [2, 9] | fold induction at 10 µM [2, 9] | fold induction at 1.11 µM [2, 10] | fold induction at 10 µM [2, 10] | fold induction at 1.11 µM [3, 11] | fold induction at 1.11 µM [3, 12] | fold induction at 1.11 µM [3, 13] | fold induction at 10 µM [3, 11] | fold induction at 10 µM [3, 12] | fold induction at 10 µM [3, 13] | other results |
| --- | --- | --- | --- | --- | --- | --- | --- | --- | --- | --- | --- | --- | --- | --- | --- | --- | --- | --- | --- | --- | --- |
| Cn1cnnc1C(F)(F)[C@](C)(F)c1cccc(N2Cc3c(cc(CN4CC[C@@H](C#N)C4)cc3C(F)(F)F)C2=O)c1 [Compound 455, (R)-1-((3-oxo-2-(3-((R)-1,1,2-trifluoro-1-(4-methyl-4H-1,2,4-triazol-3-yl)propan-2-yl)phenyl)-7-(trifluoromethyl)isoindolin-5-yl)methyl)pyrrolidine-3-carbonitrile] | 1.2 to 1.4 | 1.4 to 1.6 | 1.2 to 1.4 | 1.2 to 1.4 | 1.4 to 1.6 | > 1.6 | 1.2 to 1.4 | 1.4 to 1.6 | > 4 | > 4 | 3.01 to 4 | > 4 | > 4 | > 4 | 2.01 to 4 | > 4 | 2.01 to 4 | > 4 | > 4 | 2.01 to 4 | fold induction at 1.11 µM [3, 14]: 1.51 to 2; fold induction at 1.11 µM [3, 15]: 2.01 to 3; fold induction at 1.11 µM [3, 16]: ≤ 1.5; fold induction at 10 µM [3, 14]: 2.01 to 4; fold induction at 10 µM [3, 15]: 3.01 to 4; fold induction at 10 µM [3, 16]: 2.01 to 4 |
| Cn1cnnc1C(F)(F)[C@](C)(F)c1cccc(N2Cc3c(cc(CN4CC[C@@H](F)C4)cc3C(F)(F)F)C2=O)c1 [Compound 450] | 1.2 to 1.4 | 1.4 to 1.6 | 1.2 to 1.4 | 1.2 to 1.4 | 1.4 to 1.6 | > 1.6 | 1.2 to 1.4 | 1.4 to 1.6 | > 4 | > 4 | 2.01 to 3 | > 4 | > 4 | > 4 | 2.01 to 4 | 2.01 to 3 | 2.01 to 4 | > 4 | > 4 | 2.01 to 4 | fold induction at 1.11 µM [3, 14]: 1.51 to 2; fold induction at 1.11 µM [3, 15]: < 2; fold induction at 1.11 µM [3, 16]: 1.51 to 2; fold induction at 10 µM [3, 14]: 2.01 to 4; fold induction at 10 µM [3, 15]: < 2; fold induction at 10 µM [3, 16]: 1.51 to 2 |
| C[C@H](Cc1nncn1C)c1cccc(N2Cc3c(cccc3C(F)(F)F)C2=O)c1 [Compound 255a, (R)-2-(3-(1-(4-methyl-4H-1,2,4-triazol-3-yl)propan-2-yl)phenyl)-4-(trifluoromethyl)isoindolin-1-one] | ≤ 1.2 | 1.2 to 1.4 | ≤ 1.2 | 1.2 to 1.4 | ≤ 1.2 | ≤ 1.2 | ≤ 1.2 | ≤ 1.2 | < 2 | 3.01 to 4 | < 2 | 2.01 to 3 | < 2 | < 2 | ≤ 1.5 | 3.01 to 4 | ≤ 1.5 | 1.51 to 2 | > 4 | 1.51 to 2 | fold induction at 1.11 µM [3, 14]: ≤ 1.5; fold induction at 1.11 µM [3, 15]: < 2; fold induction at 1.11 µM [3, 16]: ≤ 1.5; fold induction at 10 µM [3, 14]: ≤ 1.5; fold induction at 10 µM [3, 15]: < 2; fold induction at 10 µM [3, 16]: ≤ 1.5 |
| C[C@H](Cc1nncn1C)c1cccc(NC(=O)c2n[nH]c3c2CCC3)c1 [Compound 313, (R)-N-(3-(1-(4-Methyl-4H-1,2,4-triazol-3-yl)propan-2-yl)phenyl)-1,4,5,6-tetrahydrocyclopenta[c]pyrazole-3-carboxamide] | 1.4 to 1.6 | 1.2 to 1.4 | 1.2 to 1.4 | 1.2 to 1.4 | > 1.6 | 1.2 to 1.4 | 1.4 to 1.6 | ≤ 1.2 | > 4 | > 4 | 3.01 to 4 | 2.01 to 3 | > 4 | 2.01 to 3 | ≤ 1.5 | < 2 | ≤ 1.5 | 2.01 to 4 | 2.01 to 3 | 2.01 to 4 | fold induction at 1.11 µM [3, 14]: ≤ 1.5; fold induction at 1.11 µM [3, 15]: 2.01 to 3; fold induction at 1.11 µM [3, 16]: ≤ 1.5; fold induction at 10 µM [3, 14]: 1.51 to 2; fold induction at 10 µM [3, 15]: < 2; fold induction at 10 µM [3, 16]: ≤ 1.5 |
| C[C@H](Cc1nncn1C)c1cccc(NC(=O)c2cccc(C(F)(F)F)n2)c1 [Compound 183a, (R)-N-(3-(1-(4-methyl-4H-1,2,4-triazol-3-yl)propan-2-yl)phenyl)-6-(trifluoromethyl)picolinamide] | 1.2 to 1.4 | 1.4 to 1.6 | 1.2 to 1.4 | 1.2 to 1.4 | 1.4 to 1.6 | > 1.6 | 1.2 to 1.4 | 1.4 to 1.6 | 3.01 to 4 | > 4 | 2.01 to 3 | > 4 | 3.01 to 4 | > 4 | 2.01 to 4 | 2.01 to 3 | 2.01 to 4 | > 4 | > 4 | 2.01 to 4 | fold induction at 1.11 µM [3, 14]: 1.51 to 2; fold induction at 1.11 µM [3, 15]: 2.01 to 3; fold induction at 1.11 µM [3, 16]: ≤ 1.5; fold induction at 10 µM [3, 14]: 2.01 to 4; fold induction at 10 µM [3, 15]: > 4; fold induction at 10 µM [3, 16]: 1.51 to 2 |
| Cc1cc(C(=O)Nc2cccc([C@H](C)Cc3nncn3C)c2)nc(C2CC2)n1 [Compound 195, (R)-2-cyclopropyl-6-methyl-N-(3-(1-(4-methyl-4H-1,2,4-triazol-3-yl)propan-2-yl)phenyl)pyrimidine-4-carboxamide] | ≤ 1.2 | > 1.6 | ≤ 1.2 | 1.2 to 1.4 | ≤ 1.2 | > 1.6 | ≤ 1.2 | 1.4 to 1.6 | < 2 | > 4 | < 2 | > 4 | < 2 | > 4 | > 4 | 2.01 to 3 | 2.01 to 4 | > 4 | > 4 | > 4 | fold induction at 1.11 µM [3, 14]: 2.01 to 4; fold induction at 1.11 µM [3, 15]: 2.01 to 3; fold induction at 1.11 µM [3, 16]: 1.51 to 2; fold induction at 10 µM [3, 14]: 2.01 to 4; fold induction at 10 µM [3, 15]: > 4; fold induction at 10 µM [3, 16]: 1.51 to 2 |
| C[C@H](Cc1nncn1C)c1cccc(N2Cc3c(cc(CN4CC[C@H](F)C4)cc3C(F)(F)F)C2=O)c1 [Compound 399, 6-(((S)-3-fluoropyrrolidin-1-yl)methyl)-2-(3-((R)-1-(4-methyl-4H-1,2,4-triazol-3-yl)propan-2-yl)phenyl)-4-(trifluoromethyl)isoindolin-1-one] | > 1.6 | > 1.6 | 1.2 to 1.4 | 1.2 to 1.4 | > 1.6 | > 1.6 | 1.4 to 1.6 | 1.4 to 1.6 | > 4 | > 4 | > 4 | > 4 | > 4 | > 4 | > 4 | > 4 | 2.01 to 4 | > 4 | > 4 | 2.01 to 4 | fold induction at 1.11 µM [3, 14]: 2.01 to 4; fold induction at 1.11 µM [3, 15]: 3.01 to 4; fold induction at 1.11 µM [3, 16]: 2.01 to 4; fold induction at 10 µM [3, 14]: > 4; fold induction at 10 µM [3, 15]: > 4; fold induction at 10 µM [3, 16]: 1.51 to 2 |
